The source of these data is patent publication US7399746B2, “Agents for wound healing” (McGill University, priority 2004, dated 2008).

Assay [1] concerns LLC-PK1 cells, a porcine kidney epithelial cell line. In words: in vitro wound healing, monolayer of kidney epithelial cells. The format is cell-based. Particulars: FIG. 1A. How it is done:
Wound healing was measured using an art-established monolayer cell culture method (Nwomeh, et al. (1998) supra). Cells to be studied were plated in 48-well tissue culture plates at a cell density appropriate for obtaining confluent monolayers after one day in culture. Circular wounds were made in the center of the wells by placing a siliconized 200 μL tip into the well and lifting the cells from the plastic by applying suction. The successful creation of wounds was analysed using a phase contrast microscope. Cells were subsequently treated with control media or media containing the factors to be tested. The size of the wounds was immediately recorded for each well. […] After one or two days in culture (depending on the cells studied), the size of the wounds was measured again. Wound dimensions were evaluated with a Leica MZFL11 stereo microscope. Computer images of the wounds were recorded with imaging software and contours of each wound before and after treatment were traced manually. Collections of contours for all wounds were converted to BMP files and quantitated using the Band-Leader program. The results were expressed as % reduction of wounds taking as 100% the reduction obtained in control cell cultures. […] In these experiments, wound closure was being analysed, independent of the mechanism involved. […]

The subject of assay [2] is primary human skin fibroblasts. In words: in vitro wound healing, monolayer of skin fibroblasts. Particulars: FIG. 1B; for wound reduction: serum-free medium, two days. The format is cell-based. The procedure: (§1) Wound healing was measured using an art-established monolayer cell culture method (Nwomeh, et al. (1998) supra). Cells to be studied were plated in 48-well tissue culture plates at a cell density appropriate for obtaining confluent monolayers after one day in culture. Circular wounds were made in the center of the wells by placing a siliconized 200 μL tip into the well and lifting the cells from the plastic by applying suction. The successful creation of wounds was analysed using a phase contrast microscope. Cells were subsequently treated with control media or media containing the factors to be tested. The size of the wounds was immediately recorded for each well. The wounds were large enough to allow for a long-term incubation thereby improving the accuracy of the determinations. After one or two days in culture (depending on the cells studied), the size of the wounds was measured again. Wound dimensions were evaluated with a Leica MZFL11 stereo microscope. Computer images of the wounds were recorded with imaging software and contours of each wound before and after treatment were traced manually. Collections of contours for all wounds were converted to BMP files and quantitated using the Band-Leader program. The results were expressed as % reduction of wounds taking as 100% the reduction obtained in control cell cultures. No change corresponded to 0%, whereas complete closure corresponded to 100%. This system works well with close monitoring of cell densities. To prevent excess cell growth, the incubations were performed in serum-free medium supplemented with a single protein, transferrin (5 μg/mL). The absence of serum slowed down the healing process (one day in LLC-PK1 cells, two days in all other cultures), but reflected more accurately the situation likely to prevail in topical applications in vivo. Wound closure depends on the migration of cells at the sites of the wound and on cell proliferation. In these experiments, wound closure was being analysed, independent of the mechanism involved.
Cells analysed in the in vitro assay disclosed herein included monolayers of LLC-PK1 cells, a porcine kidney epithelial cell line used as an experimental system of wound healing for acute renal failure (Sponsel, et al. (1994) supra); monolayers of primary human skin fibroblasts; and monolayers of human skin keratinocytes. […] This made measurements of keratinocyte wound closure particularly difficult and time consuming. According, wound closure measurements of a cross created with two perpendicular cell lesions was particularly effective for analysing human skin keratinocytes (Sponsel, et al. (1994) supra).

Assay [3] has as its system human skin keratinocytes. In words: in vitro wound healing, monolayer of skin keratinocytes. The following applies: FIG. 1C. It counts as cell-based. How it is done: as §1, with “The absence of serum slowed down the healing process (one day in LLC-PK1 cells, two days in all other cultures), but reflected more accurately the situation likely to prevail in topical applications in vivo. Wound closure depends on the migration of cells at the sites of the wound and on cell proliferation.” left out
Cells analysed in the in vitro assay disclosed herein included monolayers of LLC-PK1 cells, a porcine kidney epithelial cell line used as an experimental system of wound healing for acute renal failure (Sponsel, et al. (1994) supra); monolayers of primary human skin fibroblasts; and monolayers of human skin keratinocytes. […]

Assay [4] concerns kidney epithelial cells. As to the kind of experiment: cell proliferation, Alamar blue, kidney epithelial cells. The format is cell-based, porcine. Particulars: two days, FIG. 2A. The procedure:
(§2) The effects of IGF-API, API and C26 on cell proliferation were also evaluated using the art-established Alamar blue technique developed for hematopoietic cells or endothelial cells (DiFalco, et al. (1997) Biochem. J. 326:407-13; DiFalco & Congote (2002) Cytokine 18 (1):51-60; Sandoval, et al. (2002) supra). Five thousand cells per well were plated in 96-well plates and grown over night in complete cell culture medium. The cells were subsequently starved for one day in serum-free medium supplemented with 5 μg/mL bovine transferrin and 200 μg/mL fatty-acid free, tissue culture-tested, bovine serum albumin and incubated for two days in the presence of the API derivatives indicated. For experiments with the hepatoma cell line, Hep G2, only 3000 cells were plated per well.
On the technique in general: Alamar Blue is a resazurin reagent that responds to reducing activity.

The subject of assay [5] is human skin fibroblast cultures. In words: cell proliferation, Alamar blue, skin fibroblasts. The format is cell-based. The following applies: two days, FIG. 2B. How it is done:
as §2

Assay [6] concerns human skin keratinocytes. As to the kind of experiment: cell proliferation, Alamar blue, keratinocytes. The format is cell-based. How it is done: as §2
(§3) Cell proliferation with EGF and C26 was also analysed for keratinocytes and Hep G2 cells. The number of experiments using keratinocytes with EGF was five, and 10 to 11 with C26. The number of experiments using Hep G2 with EGF and C26 was five, except for 20 nM EGF (n=8, P<0.05, paired t-test) and for 20 μM C26 (n=21, p<0.001, paired t-test and Student-Newman-Keuls test). All other P values were according to the Student-Newman-Keul multiple comparisons test.

The test system of assay [7] is hepatoma cell line Hep G2. In words: cell proliferation, Alamar blue, Hep G2. It counts as cell-based. Particulars: Hep G2, 20 μM, FIG. 3B (n=21, p<0.001 for C26). The procedure: as §2, §3

As for “API: alpha-1 proteinase inhibitor, also known as alpha-1-antitrypsin, the major physiological inhibitor of neutrophil elastase”, the “concentration at which effective/active in wound reduction” value in assay [1] is listed as 0.16 nM. In assay [2], the “concentration with significant effect on wound reduction” value was found to be 0.02 µM and the wound reduction result is “significant, but lower than the effects obtained with IGF-API”. Moreover, in assay [3], the “concentration with effect on wound reduction” value was determined as 8 nM and the wound reduction entry was “marginal, but significant effect”.
Regarding “C26: small peptide corresponding to the last 26 amino acids of API (SEQ ID NO:2) (PFVFLMIEQNTKSPLFMGKVVNPTQK)”, the “concentration at which effective/active in wound reduction” value in assay [1] is recorded as 32 nM. Besides, the “concentration with significant effect on wound reduction” value in assay [2] stood at 8 µM. The wound reduction entry in assay [2] was “significant, but lower than the effects obtained with IGF-API”; in assay [3], “no significant effect”. Besides, the cell proliferation result is on record as “marginally stimulated cell proliferation” in assay [4]; “marginally stimulated cell proliferation” in assay [5]; “marginally stimulated cell proliferation” in assay [6] (two days, FIG. 2C); “significantly increased cell proliferation” in assay [7]. Moreover, the “cell proliferation compared to EGF” value in assay [6] (equivalent concentrations of EGF, FIG. 3A) is “higher than the effects of equivalent concentrations of epidermal growth factor”.
